ChEMBL document CHEMBL1145900, “Histone deacetylase inhibitors” (J Med Chem, 2003)
pIC50: −log10 of the molar value. ≈ marks a conversion by molar mass, not a printed value.

Target: Histone deacetylase
Experiment: not given
Design: species or system Rattus norvegicus
Conditions: not given

| Structure (SMILES) | IC50 [nM] |
| --- | --- |
| CN(C)c1ccc(C(=O)NCCCCCC(=O)NO)cc1 | 244 |
| CN(C)c1ccc(C(=O)NCCCCC(=O)NO)cc1 | > 10000 |
| CC(C)C[C@H]1C(=O)N2C(=O)[C@@H]1CCCCOc1ccc(cc1)C[C@H]2C(=O)NCCCCCC(=O)NO | 38 |
| CN(C)c1ccc(C(=O)NCCCCCCCC(=O)NO)cc1 | 145 |
| CC(C)C[C@H]1C(=O)N[C@H](C(=O)NCCCCCC(=O)NO)Cc2ccc(cc2)OCCCC[C@H]1C(=O)OC(C)(C)C | 2100 |
| O=C(CCCCCNC(=O)c1ccc([N+](=O)[O-])cc1)NO | 1566 |
| O=C(CCCCCNC(=O)c1ccc(Cl)cc1)NO | 369 |
| O=C(CCCCCN1C(=O)c2ccccc2C1=O)NO | 515 |
| O=C(CCCCCCC(=O)c1ccccc1)NO | 270 |
| O=C(CCCCCNC(=O)c1ccc(-c2ccccc2)cc1)NO | 265 |
| CN(C)c1ccc(C(=O)NCCCCCCC(=O)NO)cc1 | 46 |

Target: Histone deacetylase
Experiment: Inhibitory concentration against isolated Histone deacetylase
Format: protein assay, Homo sapiens
Conditions: not given

| Structure (SMILES) | IC50 [nM] |
| --- | --- |
| Cn1cc(C(=O)Cc2ccccc2)cc1C=C1C(=O)NC(=O)NC1=O | 104000 |
| CCOC(=O)NCCSSCCNC(=O)/C(Cc1ccc(O)c(Br)c1)=N/O | 79 |
| Cn1cc(C(=O)c2ccccc2)cc1/C=C/C(=N)N | 23000 |
| O=C(NCCSSCCNC(=O)/C(Cc1ccc(O)c(Br)c1)=N/O)/C(Cc1ccc(O)c(Br)c1)=N/O [PSAMMAPLIN A] | 4 |
| COC(=O)NCCSSCCNC(=O)/C(Cc1ccc(O)c(Br)c1)=N/O [PSAMMAPLIN D] | 44 |
| Cn1cc(C(=O)Cc2ccccc2)cc1C=C1C(=O)NC(=S)NC1=O | 85000 |
| O=C(O)C(=O)NCCSSCCNC(=O)/C(Cc1ccc(O)c(Br)c1)=N/O | 2 |
| NC(=O)C(=O)NCCSSCCNC(=O)/C(Cc1ccc(O)c(Br)c1)=N/O [PSAMMAPLIN E] | 330 |
| Cn1cc(C(=O)c2ccccc2)cc1/C=C/C#N | 70000 |

Target: Histone deacetylase (Homo sapiens) (UniProt Q13547+O15379+Q9UBN7+Q92769+Q9UQL6+Q8WUI4+Q9BY41+Q96DB2+P56524+Q9UKV0+Q969S8)
Experiment: Percent inhibition against isolated Histone deacetylase at 30 uM
Format: protein assay
Conditions: not given

| Structure (SMILES) | inhibition [%] |
| --- | --- |
| Cn1cc(C(=O)c2ccccc2)cc1C=C1C(=O)NC(=S)NC1=O | 0 |
| Cn1cc(C(=O)c2ccccc2)cc1C=C1C(=O)NC(=O)NC1=O | 0 |

Test system: MDA-MB-435
Experiment: cells
Format: functional, cell-based
Conditions: Homo sapiens
Description: Inhibitory concentration against MDA-435 cells proliferation

| Structure (SMILES) | pIC50 |
| --- | --- |
| CC(C)C[C@H]1C(=O)N2C(=O)[C@@H]1CCCCOc1ccc(cc1)C[C@H]2C(=O)NCCCCCC(=O)NO | 6.82 |
| CC(C)C[C@@H]1CC(=O)N([C@@H](Cc2ccccc2)C(=O)NCCCCCC(=O)NO)C1=O | 6.17 |
| O=C(CCCCCCNC(=O)C1Cc2ccccc2O1)NO (stereo unspecified) | 6.31 |
| CCC[C@H]1C(=O)N([C@@H](Cc2ccccc2)C(=O)NCCCCCC(=O)NO)C(=O)[C@@H]1CC(C)C | 6.24 |
| CCC[C@H]1C(=O)N([C@@H](Cc2ccc(OC)cc2)C(=O)NCCCCCC(=O)NO)C(=O)[C@@H]1CC(C)C | 6.74 |
| O=C(CCCCCNC(=O)[C@H](Cc1ccccc1)N1C(=O)CCC1=O)NO | 5.00 |
| O=C(CCCCCCNC(=O)c1cc2ccccc2[nH]1)NO | 6.82 |

Test system: not listed separately
Experiment: Inhibition of acetylation of histone-4 in human T-24 cancer cells
Conditions: not given

| Structure (SMILES) | EC [µM] |
| --- | --- |
| Nc1ccccc1NC(=O)/C=C/c1ccc(S(=O)(=O)Nc2ccc(-c3ccccc3)cc2)cc1 | 5 |
| Nc1ccccc1NC(=O)/C=C/c1ccc(NS(=O)(=O)c2ccc(-c3ccccc3)cc2)cc1 | 15 |

Target: Histone deacetylase
Experiment: Inhibitory concentration against human Histone deacetylase in Hela cells
Format: cell-based
Conditions: not given

| Structure (SMILES) | IC50 [nM] |
| --- | --- |
| CC[C@H](C)[C@@H]1NC(=O)[C@H](Cc2cn(OC)c3ccccc23)NC(=O)[C@H](CCCCCC(=O)O)NC(=O)[C@H]2CCCCN2C1=O | 15 |
| CC[C@H](C)[C@@H]1NC(=O)[C@H](Cc2cn(OC)c3ccccc23)NC(=O)[C@H](CCCCCC(=O)C(C)O)NC(=O)[C@H]2CCCCN2C1=O (stereo partly specified) | 0.3 |
| CCC(=O)C(F)CCCC[C@@H]1NC(=O)[C@H]2CCCCN2C(=O)[C@H]([C@@H](C)CC)NC(=O)[C@H](Cc2cn(OC)c3ccccc23)NC1=O (stereo partly specified) | 110 |
| CC[C@H](C)[C@@H]1NC(=O)[C@H](Cc2cn(OC)c3ccccc23)NC(=O)[C@H](CCCCCC(=O)C2CO2)NC(=O)[C@H]2CCCCN2C1=O (stereo partly specified) | < 0.1 |
| CC[C@H](C)[C@@H]1NC(=O)[C@H](Cc2cn(OC)c3ccccc23)NC(=O)[C@H](CCCCCC(=O)C(C)F)NC(=O)[C@H]2CCCCN2C1=O (stereo partly specified) | 1 |
| CC[C@H](C)[C@@H]1NC(=O)[C@H](Cc2cn(OC)c3ccccc23)NC(=O)[C@H](CCCCCC(=O)NO)NC(=O)[C@H]2CCCCN2C1=O | 0.2 |
| CC[C@H](C)[C@@H]1NC(=O)[C@H](Cc2cn(OC)c3ccccc23)NC(=O)[C@H](CCCCC(=O)OC)NC(=O)[C@H]2CCCCN2C1=O | 74 |
| CC[C@H](C)[C@@H]1NC(=O)[C@H](Cc2cn(OC)c3ccccc23)NC(=O)[C@H](CCCCCCC(=O)OC)NC(=O)[C@H]2CCCCN2C1=O | 7 |
| CC[C@H](C)[C@@H]1NC(=O)[C@H](Cc2cn(OC)c3ccccc23)NC(=O)[C@H](CCCCCC(=O)OC)NC(=O)[C@H]2CCCCN2C1=O | 0.4 |

Target: Histone deacetylase
Experiment: not given
Format: protein assay, Homo sapiens
Conditions: not given
Remark: another data set of the same source

| Structure (SMILES) | IC50 [nM] |
| --- | --- |
| Cn1cc(C(=O)c2ccccc2)cc1CCC(=O)NO | 36800 |
| O=C(NO)c1ccc(CNC(=O)c2ccc3ccccc3c2)cc1 | 44 |
| O=C(/C=C/c1cc(C(=O)c2ccccc2)c[nH]1)NO | 5000 |
| O=C(NCC1CCC(C(=O)NO)CC1)c1ccc(-c2ccccc2)cc1 (stereo unspecified) | 310 |
| CC(C)n1cc(C(=O)c2ccccc2)cc1/C=C/C(=O)NO | 53000 |
| O=C(/C=C/c1cc(C(=O)c2ccccc2)cn1-c1ccccc1)NO | 110000 |
| COc1ccc(C(=O)c2cc(/C=C/C(=O)NO)n(C)c2)cc1 | 2900 |
| Cn1cc(C(=O)/C=C/c2ccccc2)cc1/C=C/C(=O)NO | 1000 |
| O=C(NO)c1ccc(CNC(=O)c2ccc(-c3ccccc3)cc2)cc1 | 240 |
| Cn1cc(C(=O)c2ccccc2)cc1/C=C/C(=O)NO | 3800 |
| CN(C)c1ccc(C(=O)c2cc(/C=C/C(=O)NO)n(C)c2)cc1 | 2400 |
| Cn1cc(C(=O)c2ccc(Cl)cc2)cc1/C=C/C(=O)NO | 2400 |
| O=C(NO)c1ccc(CNC(=O)c2cccc3ccccc23)cc1 | 830 |
| Cn1cc(C(=O)c2ccc([N+](=O)[O-])cc2)cc1/C=C/C(=O)NO | 3900 |
| Cn1cc(C(=O)c2ccc(F)cc2)cc1/C=C/C(=O)NO | 3800 |
| Cc1ccc(C(=O)c2cc(/C=C/C(=O)NO)n(C)c2)cc1 | 1900 |

Test system: Plasmodium falciparum
Experiment: Inhibitory concentration against Plasmodium falciparum […]
Format: functional, organism-based
Conditions: not given

| Structure (SMILES) | IC50 [µg/mL] |
| --- | --- |
| CC[C@H](C)[C@@H]1NC(=O)[C@H](Cc2cn(OC)c3ccccc23)NC(=O)[C@H](CCCCCC(=O)O)NC(=O)[C@H]2CCCCN2C1=O | > 1 |
| CC[C@H](C)[C@@H]1NC(=O)[C@H](Cc2cn(OC)c3ccccc23)NC(=O)[C@H](CCCCCC(=O)C(C)O)NC(=O)[C@H]2CCCCN2C1=O (stereo partly specified) | 0.022 (≈ 0.0344 µM) |
| CCC(=O)C(F)CCCC[C@@H]1NC(=O)[C@H]2CCCCN2C(=O)[C@H]([C@@H](C)CC)NC(=O)[C@H](Cc2cn(OC)c3ccccc23)NC1=O (stereo partly specified) | 0.7 (≈ 1.09 µM) |
| CC[C@H](C)[C@@H]1NC(=O)[C@H](Cc2cn(OC)c3ccccc23)NC(=O)[C@H](CCCCCC(=O)C2CO2)NC(=O)[C@H]2CCCCN2C1=O (stereo partly specified) | < 0.015 |
| CC[C@H](C)[C@@H]1NC(=O)[C@H](Cc2cn(OC)c3ccccc23)NC(=O)[C@H](CCCCCC(=O)C(C)F)NC(=O)[C@H]2CCCCN2C1=O (stereo partly specified) | 0.028 (≈ 0.0436 µM) |
| CC[C@H](C)[C@@H]1NC(=O)[C@H](Cc2cn(OC)c3ccccc23)NC(=O)[C@H](CCCCCC(=O)NO)NC(=O)[C@H]2CCCCN2C1=O | 0.00024 (≈ 0.000383 µM) |
| CC[C@H](C)[C@@H]1NC(=O)[C@H](Cc2cn(OC)c3ccccc23)NC(=O)[C@H](CCCCC(=O)OC)NC(=O)[C@H]2CCCCN2C1=O | > 1 |
| CC[C@H](C)[C@@H]1NC(=O)[C@H](Cc2cn(OC)c3ccccc23)NC(=O)[C@H](CCCCCCC(=O)OC)NC(=O)[C@H]2CCCCN2C1=O | 0.5 (≈ 0.782 µM) |
| CC[C@H](C)[C@@H]1NC(=O)[C@H](Cc2cn(OC)c3ccccc23)NC(=O)[C@H](CCCCCC(=O)OC)NC(=O)[C@H]2CCCCN2C1=O | 0.21 (≈ 0.336 µM) |

Target: Histone deacetylase
Experiment: not given
Format: protein assay, Homo sapiens
Conditions: not given
Remark: another data set of the same source

| Structure (SMILES) | IC50 [nM] |
| --- | --- |
| C[C@H](/C=C/C=C/C(=O)NO)NC(=O)c1ccc(N(C)C)cc1 | 12187 |
| O=C(CCCCCCN1c2cccc3cccc(c23)S1(=O)=O)NO | 10 |
| C[C@H](CCCCC(=O)NO)NC(=O)c1ccc(N(C)C)cc1 | 359 |

Target: Histone deacetylase
Experiment: not given
Format: protein assay, Homo sapiens
Conditions: not given
Remark: another data set of the same source

| Structure (SMILES) | IC50 [nM] |
| --- | --- |
| O=C(CCCCCCNC(=O)c1ccc2cc[nH]c2c1)NO | 56.5 |
| O=C(CCCCCCNC(=O)c1ccc2[nH]ccc2c1)NO | 31.4 |
| CC1c2ccccc2CC1C(=O)NCCCCCCC(=O)NO (stereo unspecified) | 732 |
| O=C(CCCCCCNC(=O)c1cc2cc(Cl)ccc2o1)NO | 15 |
| COc1ccc2oc(C(=O)NCCCCCCC(=O)NO)cc2c1 | 15 |
| O=C(CCCCCCNC(=O)c1cccc2cc[nH]c12)NO | 41 |
| COc1cc(OC)c2cc(C(=O)NCCCCCCC(=O)NO)[nH]c2c1 | 3.1 |
| COc1cccc2[nH]c(C(=O)NCCCCCCC(=O)NO)cc12 | 3.1 |
| COc1ccc2[nH]c(C(=O)NCCCCCCC(=O)NO)cc2c1 | 6.5 |
| O=C(/C=C/CCCCOc1ccc(-c2ccccc2)cc1)C(F)(F)F | 5000 |
| O=C(CCCCCCNC(=O)c1c[nH]c2ccccc12)NO | 37.5 |
| O=C(CCCCCCNC(=O)C1Cc2ccccc2O1)NO (stereo unspecified) | 29.6 |
| O=C(CCCCCCNC(=O)c1ccccn1)NO | 1680 |
| O=C(CCCCCCC(=O)C(F)(F)F)Nc1cccc(-c2ccccc2)c1 | 380 |
| O=C(CCCCCCNC(=O)c1ccccc1)NO | 1006 |
| O=C(CCCCCCNC(=O)c1cc2cc(F)ccc2[nH]1)NO | 5.4 |
| O=C(CCCCCCNC(=O)c1ccc[nH]1)NO | 524 |
| O=C(CCCCCCNC(=O)c1cc2cc(Br)ccc2[nH]1)NO | 3.5 |
| O=C(CCCCCCNC(=O)c1cc2ccccc2[nH]1)NO | 14.6 |
| O=C(CCCCCCNC(=O)c1cccc2[nH]ccc12)NO | 80.3 |

Test system: HT-1080
Experiment: cells
Format: functional, cell-based
Conditions: Homo sapiens
Description: Inhibitory concentration against HT1080 cells proliferation

| Structure (SMILES) | pIC50 |
| --- | --- |
| CC(C)C[C@H]1C(=O)N2C(=O)[C@@H]1CCCCOc1ccc(cc1)C[C@H]2C(=O)NCCCCCC(=O)NO | 6.60 |
| O=C(CCCCCCNC(=O)C1Cc2ccccc2O1)NO (stereo unspecified) | 6.12 |
| O=C(CCCCCCNC(=O)c1cc2ccccc2[nH]1)NO | 6.85 |
